Patent US3930838A, “S-benzyl-N,N-disec-butylthiocarbamate and its use as a rice field herbicide and a rice growth stimulant” (priority 1970, dated 1976)

Assays:
[1] = test system: rats; conditions: os, literature values; cited from earlier work
[2] = test system: rice; conditions: Belgian Pat. No. 728,265; cited from earlier work
[3] = test system: rice; assay: Outdoor comparison of rice stimulating action of M3432 with lower homologues and isomers (Example 11); type: in vivo; conditions: 21 days after sowing
Procedure: In the province of Pavia, a test was carried out with outdoor treatments in a loam soil, on rice plots having a 12 m^2 surface each.
Formulations of 20% M3432 in emulsifiable oil were compared with 20% formulations in emulsifiable oil of S-benzyl-N,N-diisopropyl thiocarbamate; S-benzyl-N,N-diisobutylthiocarbamate; and S-benzyl-N,N-din.butylthiocarbamate employing quantities of 4, 6 and 20 kg./ha.
For each treatment, the results were gathered on 20 plants 21 days after the sowing.

[4] = test system: mice; conditions: os, literature values; cited from earlier work

Row | Compound | Acute toxicity LD50 [1] [mg/kg] | Main roots ([3]; 4 kg./ha.) [No.] | Secondary roots ([3]; 4 kg./ha.) [No.] | Shoot ([3]; 4 kg./ha.) [cm.] | Main roots ([3]; 6 kg./ha.) [No.] | Secondary roots ([3]; 6 kg./ha.) [No.] | Shoot ([3]; 6 kg./ha.) [cm.] | Main roots ([3]; 20 kg./ha.) [No.] | Secondary roots ([3]; 20 kg./ha.) [No.] | Shoot ([3]; 20 kg./ha.) [cm.] | further results
1 | Oc1c(Cl)c(Cl)c(Cl)c(Cl)c1Cl [Pentachlorophenol] | 78 to 280 | – | – | – | – | – | – | – | – | – | –
2 | CCN(CC)C(=O)SCc1ccccc1 [S-benzyl-N,N-diethylthiocarbamate] | – | – | – | – | – | – | – | – | – | – | Aggressiveness towards rice compared with ring-substituted monothiocarbamates [2]: more aggressive towards the rice
3 | COC(=O)Nc1ccc(Cl)c(Cl)c1 [Swep, methyl-N-(3,4-dichlorophenyl)carbamate] | 552 | – | – | – | – | – | – | – | – | – | –
4 | CCCCN(CCCC)C(=O)SCc1ccccc1 [S-benzyl-N,N-din.butyl-thiocarbamate, S-benzyl-N,N-din.butylthiocarbamate] | – | 3.26 | 1.78 | 4.76 | 2.81 | 1.94 | 5.24 | 1.94 | 2.05 | 2.34 | –
5 | CCN(CC)C(=O)SCc1ccc(Cl)cc1 [Saturn, S(4-chlorobenzyl)N,N-diethylthiocarbamate] | – | – | – | – | – | – | – | – | – | – | Acute toxicity LD50 [4]: 560 mg/kg
6 | CC(C)CN(CC(C)C)C(=O)SCc1ccccc1 [S-benzyl-N,N-diisobutylthiocarbamate] | – | 3.21 | 1.68 | 5.25 | 2.76 | 1.57 | 4.21 | 2.59 | 1.52 | 3.96 | –
7 | CCC(=O)Nc1ccc(Cl)c(Cl)c1 [Propanil, N(3,4-dichlorophenyl)-propionamide] | 1384 | – | – | – | – | – | – | – | – | – | –
8 | CC(C)N(C(=O)SCc1ccccc1)C(C)C [S-benzyl-N,N-diisopropylthiocarbamate, S-benzyl-N,N-diisopropyl thiocarbamate] | – | 3.45 | 2.52 | 5.36 | 3.67 | 1.63 | 5.44 | 2.79 | 1.21 | 4.03 | –
9 | O=[N+]([O-])c1ccc(Oc2ccc(Cl)cc2Cl)cc1 [Nitrofen, 2,4-dichlorophenyl-4'-nitrophenylether] | 3000 | – | – | – | – | – | – | – | – | – | –
